Experimental data: patent US4515806A, “Furan derivatives and addition salts thereof pharmaceutical compositions and the therapeutical applications thereof” (priority 1982, dated 1985)
Read-outs that look alike come from different tables or passages of the source.

Assays:
[1] = test system: gastric juices; test: Ligature of pylorus, intraduodenal treatment (Table B-2); format: in vivo, Male Wistar rats
Experimental: (§1) The method of […] et al. (J. Pharmac. Exp. […] Male Wistar rats, weighing from 250 to 300 grams were used. […] The rats were anesthetised with ethyl ether, a laparotomy was performed and the pylorus was ligatured. The abdominal incision was then sewn. Treatment was effected: (B-1) intravenously, through the femoral vein. (B-2) intraduodenally, prior to sewing the abdominal incision. Three hours after ligature of the pylorus, the volumen of gastric juices was measured, the pH was determined by a Beckman Century SS-1 pH-meter.

[2] = test system: gastric juices; test: Ligature of pylorus, intravenous treatment (Table B-1); format: in vivo, Male Wistar rats; settings: for Volume of gastric juice, percentage decrease relative to control / pH of gastric juice, percentage increase relative to control / Total acidity (titration with 0,1N NaOH), percentage decrease relative to control: 10 mg/kg i.v., 3 h after ligature
Experimental: as §1

[3] = Solubility (in words); format: physicochemical
[4] = test system: mice
[5] = test system: rats; test: Acute toxicity in rats
[6] = in vivo; settings: mouse, iv
[7] = biological target: T1, histamine H2 receptors (Rattus norvegicus, UniProt P25102); settings: for inhibition at 0.0434 µM / inhibition at 0.434 µM / inhibition at 4.34 µM / inhibition at 43.4 µM: rat, read-out: Antagonism (% reduction) of the histamine induced response in KCl contracted rat uterus; for EC50: read-out: effective concentration for producing a 50% antagonism of the histamine response (EC50)
T1 construct: the uterine horn was removed and suspended in a De Jalon solution in an organ bath; from tissue; host or cells: rat uterine horn (rats in estrus, stilbestrol-treated)
Experimental: Rats in estrus were used and were administered 100 mcg of stilbestrol by intramuscular (i.m.) injection 30 hours before removing the uterus. On the day of the experiment, the uterine horn was removed and suspended in a De Jalon solution in an organ bath, held at 28° C. and aerated with a flow of 95% O2 and 5% CO2. Thereafter a sustained uterine contraction was induced by the addition of a KCl solution to provide a concentration in the organ bath of 4.2 mg/ml, namely, 10 times that of the De Jalon serum. The uterus was caused to relax with the addition of the amount of histamine required to obtain a good response.

[8] = 1 mg/kg intraduodenal, lot of 4 rats
[9] = 3 mg/kg intraduodenal, 4 or 5 rats
[10] = 10 mg/kg intraduodenal, first lot (4 or 5 rats)
[11] = 10 mg/kg intraduodenal, lot of 8 rats
[12] = 10 mg/kg intraduodenal, second lot (4 or 5 rats)
[13] = 1 mg/kg intraduodenal, lot of 5 rats

T1 sequence (P25102 whole entry): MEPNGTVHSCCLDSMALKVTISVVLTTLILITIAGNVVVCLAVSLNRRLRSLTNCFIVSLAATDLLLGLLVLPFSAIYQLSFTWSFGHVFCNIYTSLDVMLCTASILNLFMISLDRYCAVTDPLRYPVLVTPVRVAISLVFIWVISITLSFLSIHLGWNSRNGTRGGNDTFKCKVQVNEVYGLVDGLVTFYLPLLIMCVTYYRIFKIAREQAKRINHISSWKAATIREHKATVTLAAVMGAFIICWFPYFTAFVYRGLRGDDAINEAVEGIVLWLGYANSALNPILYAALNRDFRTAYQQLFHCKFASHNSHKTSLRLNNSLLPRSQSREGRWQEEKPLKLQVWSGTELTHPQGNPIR

| Compound | Total acidity (titration with 0,1N NaOH), percentage decrease relative to control [1, 8] [%] | Volume of gastric juice, percentage decrease relative to control [1, 8] [%] | pH of gastric juice, percentage increase relative to control [1, 8] [%] | Total acidity (titration with 0,1N NaOH), percentage decrease relative to control [1, 9] [%] | Volume of gastric juice, percentage decrease relative to control [1, 9] [%] | pH of gastric juice, percentage increase relative to control [1, 9] [%] | Total acidity (titration with 0,1N NaOH), percentage decrease relative to control [1, 10] [%] | Volume of gastric juice, percentage decrease relative to control [1, 10] [%] | pH of gastric juice, percentage increase relative to control [1, 10] [%] | Total acidity (titration with 0,1N NaOH), percentage decrease relative to control [1, 11] [%] | Volume of gastric juice, percentage decrease relative to control [1, 11] [%] | pH of gastric juice, percentage increase relative to control [1, 11] [%] | Total acidity (titration with 0,1N NaOH), percentage decrease relative to control [1, 12] [%] | Volume of gastric juice, percentage decrease relative to control [1, 12] [%] | pH of gastric juice, percentage increase relative to control [1, 12] [%] | Total acidity (titration with 0,1N NaOH), percentage decrease relative to control ([1]; 25 mg/kg intraduodenal, 5 rats) [%] | Volume of gastric juice, percentage decrease relative to control ([1]; 25 mg/kg intraduodenal, 5 rats) [%] | pH of gastric juice, percentage increase relative to control ([1]; 25 mg/kg intraduodenal, 5 rats) [%] | Volume of gastric juice, percentage decrease relative to control ([2]; first lot (2 or 3 rats)) [%] | solubility ([3]; methanol) | also measured |
| --- | --- | --- | --- | --- | --- | --- | --- | --- | --- | --- | --- | --- | --- | --- | --- | --- | --- | --- | --- | --- | --- |
| CN/C(=N/CCSCc1nc[nH]c1C)NC#N [Cimetidine, cimetidine] | 48 | 14 | 46 | 48 | 23 | 29 | 84 | 28 | 50 | 40 | 6.6 | 100 | 82 | 51 | 178 | 51.5 | 35.4 | 110 | 41.0 |  | pH of gastric juice, percentage increase relative to control ([2]; first lot (2 or 3 rats)): 50.4%; Total acidity (titration with 0,1N NaOH), percentage decrease relative to control ([2]; lot of 5 rats): 11.7%; Volume of gastric juice, percentage decrease relative to control ([2]; lot of 5 rats): 23.2%; Total acidity (titration with 0,1N NaOH), percentage decrease relative to control ([2]; lot of 8 rats): 52.7%; Volume of gastric juice, percentage decrease relative to control ([2]; lot of 8 rats): 7.3%; pH of gastric juice, percentage increase relative to control ([2]; lot of 8 rats): 64.9% |
| CN(C)Cc1ccc(CSCCNC(=C[N+](=O)[O-])NCCO)o1 [Example 1, (a), N-[2-[[(5-[(dimethylamino)methyl]-2-furanyl)methyl]thio]ethyl]-N'-(2-hydroxyethyl)-2-nitro-1,1-ethenediamine] |  |  |  |  |  |  |  |  |  |  |  |  |  |  |  |  |  |  |  | soluble | solubility ([3]; chloroform): soluble |
| CN(C)Cc1ccc(CSCCNC(=C[N+](=O)[O-])NCCO)o1.Cl [Example 1, (b), N-[2-[[(5-[(dimethylamino)methyl]-2-furanyl)methyl]thio]ethyl]-N'-(2-hydroxyethyl)-2-nitro-1,1-ethenediamine hydrochloride] |  |  |  |  |  |  |  |  |  |  |  |  |  |  |  |  |  |  |  | soluble | acute toxicity [4]: low; solubility ([3]; water): soluble; acute toxicity [5]: low; activity (reduction in volume, increase in pH of gastric juice) ([1]; intraduodenal): very high; activity compared with cimetidine ([1]; intraduodenal): more active than cimetidine; activity compared with ranitidine ([1]; intraduodenal): practically the same activity; activity (reduction in volume, increase in pH of gastric juice) ([2]; intravenous): very high; activity compared with cimetidine ([2]; intravenous): more active than cimetidine; activity compared with ranitidine ([2]; intravenous): rather higher; LD50 [6]: 200 mg/kg; activity compared with ranitidine ([7]; rat uterus H2 receptors): more active than ranitidine; inhibition at 0.0434 µM [7]: 0%; inhibition at 0.434 µM [7]: 22.2%; inhibition at 4.34 µM [7]: 47.3%; inhibition at 43.4 µM [7]: 81.8%; EC50 [7]: 5.5 µM |
| O=[N+]([O-])C=C(NCCO)NCCO [Example 2, N,N'-bis(2-hydroxyethyl)-2-nitro-1,1-ethenediamine] |  |  |  |  |  |  |  |  |  |  |  |  |  |  |  |  |  |  |  | slightly soluble | solubility ([3]; ethanol): slightly soluble; solubility ([3]; water): soluble |
| CNC(=C[N+](=O)[O-])NCCSCc1ccc(CN(C)C)o1 [Ranitidine, ranitidine] | 38 | 46.2 | 17 | 47 | 5 | 46 | 66 | 30 | 95 | 50 | 12 | 97.4 | 75 | 58 | 202 | 83 | 55 | 210 | 68.1 |  | Total acidity (titration with 0,1N NaOH), percentage decrease relative to control [1, 13]: 18%; Volume of gastric juice, percentage increase relative to control [1, 13]: 6%; pH of gastric juice, percentage increase relative to control [1, 13]: 60%; pH of gastric juice, percentage increase relative to control ([2]; first lot (2 or 3 rats)): 200.8%; Total acidity (titration with 0,1N NaOH), percentage decrease relative to control ([2]; lot of 5 rats): 81.8%; Volume of gastric juice, percentage decrease relative to control ([2]; lot of 5 rats): 61.4%; pH of gastric juice, percentage increase relative to control ([2]; lot of 5 rats): 88.5%; Total acidity (titration with 0,1N NaOH), percentage decrease relative to control ([2]; lot of 8 rats): 72.7%; Volume of gastric juice, percentage decrease relative to control ([2]; lot of 8 rats): 21%; pH of gastric juice, percentage increase relative to control ([2]; lot of 8 rats): 104.2%; EC50 ([7]; rat uterus, KCl contracted): 8.25 µM; inhibition at 0.0434 µM [7]: 0%; inhibition at 0.434 µM [7]: 20%; inhibition at 4.34 µM [7]: 42.2%; inhibition at 43.4 µM [7]: 73.8% |
| NCCc1c[nH]cn1 [histamine] |  |  |  |  |  |  |  |  |  |  |  |  |  |  |  |  |  |  |  |  | inhibition at 54.3 µM ([7]; read-out: inhibition of the contraction caused by KCl): 74.5% |
